In patent US9133186B2, “Hetero ring-fused imidazole derivative having AMPK activating effect” (Shionogi & Co., Ltd., priority 2010, dated 2015):

Target: T1, human AMPK α1β1γ1 enzyme (Homo sapiens, UniProt Q13131+Q9Y478)
T1 construct: purchased Carna Biosciences, Inc
Test: AMPK activator evaluation, Test Example 1 (mobility shift, FL-Peptide 7)
Format: biochemical
Conditions: human AMPK α1β1γ1, control without compound = 100%; for Emax: read-out: Emax (maximum rate of increase in activity within the measurement range)
Procedure: To a buffer solution consisting of a 50 mM HEPES-NaOH buffer solution (pH 7.0), 100 mM NaCl, 10 mM magnesium chloride, 0.1% bovine serum albumin, 0.2 mM sodium orthovanadate(V), 1 mM ethylene glycol-bis(2-aminoethyl ether)-N,N,N′,N′-tetraacetic acid (EGTA), 5 mM disodium (3-glycerophosphate and 2 mM dithiothreitol, a human AMPK α1β1γ1 enzyme (manufactured by Carna Biosciences, Inc.) was added in an amount to give a conversion rate of approximately 10% by reaction for 2 hours, and a compound dissolved in DMSO was added thereto so as to have a 1% DMSO concentration. The obtained liquid was left to stand for 10 minutes.
To the liquid, a substrate solution consisting of a 50 mM HEPES-NaOH buffer solution (pH 7.0), 100 mM NaCl, 10 mM magnesium chloride, 0.1% bovine serum albumin, 0.2 mM sodium orthovanadate(V), 1 mM ethylene glycol-bis(2-aminoethyl ether)-N,N,N′,N′ tetraacetic acid (EGTA), 5 mM disodium β-glycerophosphate, 2 mM dithiothreitol, 0.4 mM ATP and 3 μM FL-Peptide 7 (manufactured by Caliper Life Sciences, Inc.) was added in equal amount (10 μl in total). The obtained liquid was allowed to react at 25° C. for 2 hours, and 10 μl of 20 mM EDTA was then added thereto to stop the reaction.
To detect phosphorylated fluorescent substrates, the reaction liquid was applied to a measuring device, LabChip EZ Reader II manufactured by Caliper Life Science, Inc., for detecting fluorescence by using differences in mobility due to differences in charge. The setting conditions for the device were pressure, −1.5 PSI; upstream voltage, −2250 V; downstream voltage, −400 V; post sample buffer sip time, 40 seconds; final delay, 120 seconds; and peak order, Product First.

T1 sequence (Q13131 10-559 limits assumed): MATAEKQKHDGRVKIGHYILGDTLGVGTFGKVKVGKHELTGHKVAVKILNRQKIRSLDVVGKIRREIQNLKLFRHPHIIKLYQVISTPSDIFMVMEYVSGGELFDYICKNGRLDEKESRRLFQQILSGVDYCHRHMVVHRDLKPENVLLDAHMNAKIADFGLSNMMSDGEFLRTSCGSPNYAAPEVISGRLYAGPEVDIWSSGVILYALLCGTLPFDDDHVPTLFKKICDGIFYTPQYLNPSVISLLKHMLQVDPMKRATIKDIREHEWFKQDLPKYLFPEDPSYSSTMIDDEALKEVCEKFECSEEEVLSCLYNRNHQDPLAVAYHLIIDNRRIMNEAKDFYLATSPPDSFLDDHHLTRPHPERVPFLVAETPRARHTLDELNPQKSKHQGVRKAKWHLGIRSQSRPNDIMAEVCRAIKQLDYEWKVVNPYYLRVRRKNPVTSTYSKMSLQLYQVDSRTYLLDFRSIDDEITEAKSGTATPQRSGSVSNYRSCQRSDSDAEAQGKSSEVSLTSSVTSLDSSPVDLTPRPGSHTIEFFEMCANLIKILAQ
T1 sequence (Q9Y478 whole entry): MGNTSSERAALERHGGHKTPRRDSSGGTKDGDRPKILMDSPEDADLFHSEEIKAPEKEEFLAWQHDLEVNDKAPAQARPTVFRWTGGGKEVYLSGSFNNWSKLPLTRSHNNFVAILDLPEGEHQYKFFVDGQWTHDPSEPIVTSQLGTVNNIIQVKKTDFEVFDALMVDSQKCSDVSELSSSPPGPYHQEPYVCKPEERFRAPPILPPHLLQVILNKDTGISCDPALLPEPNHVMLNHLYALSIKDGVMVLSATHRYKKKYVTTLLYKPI
T1 sequence (P54619 whole entry partner): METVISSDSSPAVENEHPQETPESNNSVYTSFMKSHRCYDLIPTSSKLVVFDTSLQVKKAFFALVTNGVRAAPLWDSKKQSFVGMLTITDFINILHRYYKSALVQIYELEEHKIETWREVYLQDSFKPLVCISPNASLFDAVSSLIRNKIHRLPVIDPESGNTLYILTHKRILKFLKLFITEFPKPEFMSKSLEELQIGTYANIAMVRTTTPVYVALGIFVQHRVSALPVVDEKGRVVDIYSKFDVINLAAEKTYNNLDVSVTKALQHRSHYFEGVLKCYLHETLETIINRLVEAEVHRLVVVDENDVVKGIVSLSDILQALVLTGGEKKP

EC150 (compound concentration showing 150% relative to the control) [nM]	Emax [%]	Compound
430	182	CC(=O)NC(C)(C)c1ccc(Oc2nc3nc(-c4ccc(N5CCOCC5)cc4)c(Cl)cc3[nH]2)cn1 [Compound D-1]
220	255	CC(=O)NC(C)(C)c1ncc(Oc2nc3nc(-c4ccc(N5CCOCC5)cc4)c(Cl)cc3[nH]2)cn1 [Compound D-2]
220	192	CN1CCc2cc(-c3nc4nc(Oc5ccc(C(C)(C)C(N)=O)cc5)[nH]c4cc3Cl)ccc21 [Compound D-3]
70	207	CC(C)(C(N)=O)c1ccc(Oc2nc3nc(-c4ccc(C5(COC(N)=O)CC5)cc4)c(Cl)cc3[nH]2)cc1 [Compound D-4]
1600	285	CC(C)(C(N)=O)c1ccc(Oc2nc3nc(-c4ccc(N5CCOCC5)cc4)c(Cl)cc3[nH]2)cn1 [Compound D-7]
39	244	CC(=O)NC(C)(C)c1ccc(Oc2nc3nc(-c4ccc(N5CCOCC5)cc4)c(Cl)cc3[nH]2)cc1F [Compound D-8]
380	186	CC(C)(CO)c1ccc(Oc2nc3nc(-c4ccc(N5CCOCC5)cc4)c(Cl)cc3[nH]2)cn1 [Compound D-9]
69	226	CC(C)(C(N)=O)c1ccc(Oc2nc3nc(-c4ccc(N5CCOCC5)cc4)c(Cl)cc3[nH]2)cc1F [Compound D-12]
8.5	280	CC(=O)NC(C)(C)c1ccc(Oc2nc3nc(-c4ccc(OCCO)cc4)c(Cl)cc3[nH]2)cc1 [Compound D-16]
11	282	CC(=O)NC(C)(C)c1ccc(Oc2nc3nc(-c4ccc(CCO)cc4)c(Cl)cc3[nH]2)cc1 [Compound D-17]
21	325	CC(C)(C(=O)O)c1cccc(Oc2nc3nc(-c4ccc(N5CCOCC5)cc4)c(Cl)cc3[nH]2)c1 [Compound D-18]
41	351	CC(=O)NC(C)(C)c1ccc(Oc2nc3nc(-c4ccc(N(C)C)cc4)c(Cl)cc3[nH]2)cc1 [Compound D-21]
140	198	CC(C)(C(N)=O)c1ccc(Oc2nc3nc(-c4ccc(C5(CO)CC5)cc4)c(Cl)cc3[nH]2)cc1 [Compound D-24]
31	225	CC(C)(NC(=O)CO)c1ccc(Oc2nc3nc(-c4ccc(N5CCOCC5)cc4)c(Cl)cc3[nH]2)cc1 [Compound D-25]
82	282	CC(=O)NC(C)(C)c1ccc(Oc2nc3nc(-c4cccc(N(C)C)c4)c(Cl)cc3[nH]2)cc1 [Compound D-26]
19	314	CNc1ncc(Oc2nc3nc(-c4ccc(N5CCOCC5)cc4)c(Cl)cc3[nH]2)cn1 [Compound D-31]
52	220	CC(=O)NCC(C)(C)c1ccc(Oc2nc3nc(-c4ccc(N5CCOCC5)cc4)c(Cl)cc3[nH]2)cc1 [Compound D-33]
0.6	310	CC(=O)NC(C)(C)c1ccc(Oc2nc3nc(-c4ccc(-c5ccccc5O)cc4)c(Cl)cc3[nH]2)cc1 [Compound D-39]
8300	159	CNCC(C)(C)c1ccc(Oc2nc3nc(-c4ccc(N5CCOCC5)cc4)c(Cl)cc3[nH]2)cc1 [Compound D-41]
260	187	CC(=O)NC(C)(C)c1ccc(Oc2nc3nc(-c4ccc(C5(CO)CC5)cc4)c(Cl)cc3[nH]2)cn1 [Compound D-42]

EC150 (compound concentration showing 150% relative to the control) [nM]	Emax [%]	Compound
11	225	COCC(=O)NC(C)(C)c1ccc(Oc2nc3nc(-c4ccc(N5CCOCC5)cc4)c(Cl)cc3[nH]2)cc1 [Compound D-50]
2800	169	CC(C)(NS(C)(=O)=O)c1ccc(Oc2nc3nc(-c4ccc(N5CCOCC5)cc4)c(Cl)cc3[nH]2)cc1 [Compound D-52]
110	252	CC(C)(C(N)=O)c1ncc(Oc2nc3nc(-c4ccc(N5CCOCC5)cc4)c(Cl)cc3[nH]2)cn1 [Compound D-54]
2700	177	CC(C)(C(=O)NCCO)c1ccc(Oc2nc3nc(-c4ccc(N5CCOCC5)cc4)c(Cl)cc3[nH]2)cn1 [Compound D-55]
68	211	COC(=O)NC(C)(C)c1ccc(Oc2nc3nc(-c4ccc(N5CCOCC5)cc4)c(Cl)cc3[nH]2)cn1 [Compound D-56]
66	224	CC(=O)NC(C)(C)c1ccc(Oc2nc3nc(-c4ccc(C5(CO)CCC5)cc4)c(Cl)cc3[nH]2)cc1 [Compound D-58]
80	267	CC(=O)NC(C)(C)c1ccc(Oc2nc3nc(-c4ccc(NCCO)cc4)c(Cl)cc3[nH]2)cc1 [Compound D-62]
42	252	CC(C)(C)C(=O)NC(C)(C)c1ccc(Oc2nc3nc(-c4ccc(N5CCOCC5)cc4)c(Cl)cc3[nH]2)cc1 [Compound D-65]
180	214	CC(=O)NC(C)(C)c1ccc(Oc2nc3nc(-c4ccc(C5=CCOCC5)cc4)c(Cl)cc3[nH]2)cn1 [Compound D-70]
860	174	CC(C)(C(N)=O)c1ccc(Oc2nc3nc(-c4ccc(C5(CO)CC5)cc4)c(Cl)cc3[nH]2)cn1 [Compound D-71]
220	192	CC(C)(CO)c1ccc(Oc2nc3nc(-c4ccc(C5(CO)CC5)cc4)c(Cl)cc3[nH]2)cn1 [Compound D-72]
17	254	CC(=O)NC(C)(C)c1ccc(Oc2nc3nc(-c4ccc(C5=CCOCC5)cc4)c(Cl)cc3[nH]2)cc1 [Compound D-73]
4300	172	CONC(=O)C(C)(C)c1ccc(Oc2nc3nc(-c4ccc(N5CCOCC5)cc4)c(Cl)cc3[nH]2)cn1 [Compound D-102]
110	238	CC(=O)NC(C)(C)c1ccc(Oc2nc3nc(-c4ccc(C5(C(C)O)CC5)cc4)c(Cl)cc3[nH]2)cc1 [Compound D-103]
26	249	CC(=O)NC(C)(C)c1ccc(Oc2nc3nc(-c4ccc(C5CCOCC5)cc4)c(Cl)cc3[nH]2)cc1 [Compound D-107]
3.3	301	CC(=O)NC(C)(C)c1ccc(Oc2nc3nc(-c4ccc(C5=CCN(C)CC5)cc4)c(Cl)cc3[nH]2)cc1 [Compound D-108]
18	270	CC(=O)NCCCOc1ccc(-c2nc3nc(Oc4ccc(C(C)(C)NC(C)=O)cc4)[nH]c3cc2Cl)cc1 [Compound D-109]
270	220	CC(=O)NC(C)(C)c1ccc(Oc2nc3nc(-c4ccc(C5(CO)COC5)cc4)c(Cl)cc3[nH]2)cc1 [Compound D-110]
150	238	CC(=O)NC(C)(C)c1ccc(Oc2nc3nc(-c4ccc(C5COC5)cc4)c(Cl)cc3[nH]2)cc1 [Compound D-111]
